This is an account of results in patent US20140051701A1, “METHODS OF TREATING A DISEASE OR CONDITION OF THE CENTRAL NERVOUS SYSTEM” (Bionomics Limited, priority 2011, published 2014).

Data set [1] deals with rat primary cortical neurons. Description: Neurite outgrowth assay in cortical neuron culture. The data set is classed as cell-based. The following applies: for minimal effective concentration: Rattus norvegicus, Primary cortical neuron, 72 h, 3 days exposure of cortical neurons, read-out: concentration giving significant neurite outgrowth; for effect on neurite outgrowth, substance alone: primary cortical neurons; for block of Compound 1-induced enhancement of neurite outgrowth by PLC inhibitor: inhibitor in combination with Compound 1. The protocol: Female rats of 17 days gestation were killed by cervical dislocation and the foetuses were removed from the uterus. Their brains were placed in ice-cold medium of Leibovitz (L15, Gibco, Fisher bioblock, France). Cortex were dissected and meninges were carefully removed. The cortical neurons were dissociated by trypsinization for 30 min at 37° C. (trypsin-EDTA Gibco) in presence of 0.1 mg/ml DNAse I (Roche, France). The reaction was stopped by addition of in medium of Eagle modified by Dulbecco (DMEM; Gibco) with 10% of fetal bovine serum (FBS; Gibco). The suspension was triturated with a 10-ml pipette and using a needle syringe 21G and centrifuged at 350×g for 10 min at room temperature. The pellet of dissociated cells was resuspended in a medium consisting of Neurobasal (Gibco) supplemented with 2% B27 supplement (Gibco), 0.5 mM L-Glutamine (Gibco), an antibiotic-antimicotic mixture. Viable cells were counted in a Neubauer cytometer using the trypan blue exclusion test (Sigma). Cells were seeded on the basis of 30000 cells per Petri dish (ø35 mm, Nunc) precoated with poly-L-lysine.
Cells were allowed to adhere 2 h and maintained in a humidified incubator at 37° C. in 5% CO2-95% air atmosphere.
After neuronal adhesion (2 h after the plating), cultures were exposed to Compound 1 or BDNF for a period of 3 days.
After the 3 days exposure of the neurons to the test compounds, cultures were washed with phosphate-buffered saline (PBS, Gibco) and fixed using 2.5% glutaraldehyde in PBS. Several pictures (˜80) of neurons with neurites without any branching were taken per condition using a digital camera (Coolpix 995; Nikon) mounted on the microscope (Nikon, objective 40×). Neurites were outlined on computer screen using imaging software (Image-Pro Plus, France), which automatically calculates the length.
A global analysis of the data was performed using a one way analysis of variance (ANOVA), followed by Fisher's Protected Least Significant Difference when applicable. The level of significance was set to p<0.05. All results were expressed as mean±sem. N=˜180 cells
The compound of example 1h was tested at 0.1 nM, 1 nM, 10 nM, 100 nM and 1000 nM on two independent cultures comprising 2 Petri dishes per culture and per condition. In parallel, BDNF was tested at 50 ng/ml.

Data set [2] in a line: Non-precipitated withdrawal (physical dependence) after 14-day dosing. The data set is classed as in vivo, rat. The following applies: 14 days at 10, 30 and 100 mg/kg/day; 5 days post-treatment; versus no-drug group; listed as Compound 1. The text has this: Sudden discontinuation of antidepressant medication may produce withdrawal effects caused by physical dependence on the drug. Compounds can be evaluated for physical dependence in a simple animal model where, following a period of chronic dosing (e.g., for 14-20 days), the study drug is stopped and measurements of food intake, body weight and body temperature are taken over the next 5 days. […] This model is suitable for detecting the effects across a broad range of drug classes including opiates, antidepressants and benzodiazepines. […]
Rats treated chronically (14-20 days) with opioids, benzodiazepines Or SSRIs display adverse physical effects after non-precipitated withdrawal of the drugs. The potential consequences of abrupt cessation of dosing with Compound 1 was assessed following 14 days of treatment at 0, 10, 30 and 100 mg/kg/day.

Another data set concerns mouse. Description: Mouse light dark box model. The data set is classed as in vivo. The method, then: U73122 was then examined for an in vivo effect on the activity of Example 1 in the mouse light dark box. U73122 was given IP at 30 mg/kg, 120 minutes prior to testing. Compound 1 was dosed orally at 10 mg/kg, 60 minutes prior to testing. […] This experiment was repeated using the anxiolytic compound diazepam to determine whether the activity of U73122 was specific to Compound 1 (FIG. 5).

Structures are written as SMILES. Entries after “also recorded” stand apart in the source; their conditions may differ.

Turning to `CCOC(=O)c1cn(CC)c2ncc(N)cc2c1=O` [Example 1f, Ethyl 1-ethyl-1,4-dihydro-6-amino-4-oxo-1,8-naphthyridine-3-carboxylate], the minimal effective concentration in data set [1] was less than 0.1 µM.

Take `CCOC(=O)c1cn(CC)c2ncc(NC3Cc4ccccc4C3)cc2c1=O` [Example 1g, Ethyl 6-(2,3-dihydro-1H-inden-2-ylamino)-1-ethyl-1,4-dihydro-4-oxo-1,8-naphthyridine-3-carboxylate]: in data set [1], the minimal effective concentration was less than 0.1 µM.

Take `CCn1cc(C(=O)N2CCOCC2)c(=O)c2cc(NC3Cc4ccccc4C3)cnc21` [Example 1h]: the “changes in body temperature, weight gain or food consumption after withdrawal” value in data set [2] is reported as “does not produce signs of withdrawal; also recorded: did not produce significant changes”. In addition, the anxiolytic activity entry with mouse (10 mg/kg orally, 60 minutes prior to testing) is reported as “robust anxiolytic activity”. In data set [1], the minimal effective concentration is less than 0.1 µM and the “effect on neurite outgrowth, substance alone” value is “enhancement of neurite outgrowth”.

Take `CCn1cc(C(=O)N2CCN(C)CC2)c(=O)c2cc(NC3Cc4ccccc4C3)cnc21` [Example 2, Methylpiperazino 6-(2,3-dihydro-1H-inden-2-ylamino)-1-ethyl-1,4-dihydro-4-oxo-1,8-naphthyridine-3-carboxamide]: the minimal effective concentration in data set [1] was less than 0.1 µM.

Take `CCn1cc(C(=O)NC2CC2)c(=O)c2cc(NC3Cc4ccccc4C3)cnc21` [Example 3, Cyclopropylamino 6-(2,3-dihydro-1H-inden-2-ylamino)-1-ethyl-1,4-dihydro-4-oxo-1,8-naphthyridine-3-carboxamide]: the minimal effective concentration in data set [1] is less than 0.1 µM.

In the case of `CCn1cc(C(=O)N2CCOCC2)c(=O)c2cc(N)cnc21` [Example 4, Morpholino 6-amino-1-ethyl-1,4-dihydro-4-oxo-1,8-naphthyridine-3-carboxamide], in data set [1], the minimal effective concentration was less than 0.1 µM.

As to `CCn1cc(C(=O)Nc2ccc(F)cc2)c(=O)c2cc(NC3Cc4ccccc4C3)cnc21` [Example 5, 4-fluorophenylamine 6-(2,3-dihydro-1H-inden-2-ylamino)-1-ethyl-1,4-dihydro-4-oxo-1,8-naphthyridine-3-carboxamide], in data set [1], the minimal effective concentration was less than 0.1 µM.

On to `CCn1cc(C(=O)Nc2ccc(-c3ccccc3)cc2)c(=O)c2cc(NC3Cc4ccccc4C3)cnc21` [Example 6, 4-biphenylamino-6-(2,3-dihydro-1H-inden-2-ylamino)-1-ethyl-1,4-dihydro-4-oxo-1,8-naphthyridine-3-carboxamide], for which, in data set [1], the minimal effective concentration was less than 0.1 µM.

As to `CCOC(=O)c1cn(CC)c2ncc(NC(=O)C(C)C)cc2c1=O` [Example 7, Ethyl 6-(isobutyrylamide)-1-ethyl-1,4-dihydro-4-oxo-1,8-naphthyridine-3-carboxylate], the minimal effective concentration in data set [1] is less than 0.1 µM.

As to `S=C([S-])OC1CC2CC1C1CCCC21.[K+]` (centres unmarked) [Example D609, reference compound], in data set [1], the “block of Compound 1-induced enhancement of neurite outgrowth by PLC inhibitor” value was “blocked; also recorded: significant and dose-dependant reduction”; the “effect on neurite outgrowth, substance alone” value is “enhanced neurite outgrowth”.

`COc1ccc2c(c1)CC[C@@H]1[C@@H]2CC[C@]2(C)[C@@H](NCCCCCCN3C(=O)C=CC3=O)CC[C@@H]12` [Example U73122, reference compound]: the “effect on anxiolytic activity of Compound 1” value in the data set with mouse (U73122 30 mg/kg IP in combination with 10 mg/kg p.o. Compound 1) is given as “blocks; also recorded: fully blocked the anxiolytic effect”. Further, the “effect on the Time, Entries or Distance parameters, alone” value with mouse (U73122 30 mg/kg IP, 120 minutes prior to testing) is “did not have any effect”. Moreover, the “effect on the animals' responses to diazepam” value in the data set with mouse (U73122 30 mg/kg i.p. with diazepam 1 mg/kg p.o.) is given as “did not cause any change”. Also, the “block of Compound 1 activity on neurite outgrowth” value in data set [1] (U73122 at 1 μM, Compound 1 10 nM) is “significant block”. The “concentration at which full block of Compound 1 activity occurs” value in data set [1] (U73122 tested over 30 nM to 1 μM with Compound 1 10 nM) amounted to 100 nM. Moreover, the “block of Compound 1-induced enhancement of neurite outgrowth by PLC inhibitor” value in data set [1] is on record as “blocked; also recorded: dose-related block”.
